Source: PubChem BioAssay (NCI)
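Cultured in 96-well plates, cells were exposed to test compound for 48 hours across five concentrations. GI50 is the concentration that inhibits growth by half. TGI denotes the concentration required for complete inhibition of growth.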

Columns and labels:
Assay in all cases: inhibition of tumour cell growth, NCI panel, 48 h
SF-268 CNS = tested on: SF-268 CNS
OVCAR-4 ovarian = tested on: OVCAR-4 ovarian
UO-31 renal = tested on: UO-31 renal
MCF7 breast = tested on: MCF7 breast
SNB-75 CNS = tested on: SNB-75 CNS
NCI-H226 lung = tested on: NCI-H226 lung
MDA-MB-231 breast = tested on: MDA-MB-231 breast
DU-145 prostate = tested on: DU-145 prostate
UACC-257 melanoma = tested on: UACC-257 melanoma
SK-OV-3 ovarian = tested on: SK-OV-3 ovarian

Structure (SMILES)	TGI (SF-268 CNS) [µM]	TGI (OVCAR-4 ovarian) [µM]	TGI (UO-31 renal) [µM]	TGI (MCF7 breast) [µM]	TGI (SNB-75 CNS) [µM]	TGI (NCI-H226 lung) [µM]	TGI (MDA-MB-231 breast) [µM]	TGI (DU-145 prostate) [µM]	TGI (UACC-257 melanoma) [µM]	TGI (SK-OV-3 ovarian) [µM]	GI50 (SF-268 CNS) [µM]	GI50 (OVCAR-4 ovarian) [µM]	GI50 (UO-31 renal) [µM]	GI50 (SNB-75 CNS) [µM]	GI50 (NCI-H226 lung) [µM]	GI50 (SK-OV-3 ovarian) [µM]	GI50 (MDA-MB-231 breast) [µM]	GI50 (DU-145 prostate) [µM]	GI50 (UACC-257 melanoma) [µM]
CCOC(=O)C(NC(=O)c1cccc(Cl)c1)(Nc1cccc(C)c1)C(F)(F)F (stereo unspecified)	58.9	62.8	32.7	39	43.9	30.7	41.6	99.6	71.5										
O=C(c1ccc([N+](=O)[O-])cc1)N1CCCC1	> 100	> 100	> 100	> 100	> 100	> 100	> 100	> 100	> 100										
CC(=O)Oc1ccc2c(-c3ccccc3)c(Oc3ccc(Cl)cc3)c(=O)oc2c1	22.6	35.8	28.4	39.8	19.5	32.5	32.8	27.4	37.8										
CCOC(=O)N1CCN(c2c(N)nc(C)[nH]c2=O)CC1	> 100	> 100	> 100	> 100	> 100	> 100	> 100	> 100	> 100										
Cc1c(C(=O)NNc2ccccc2)n2c(=S)[nH]nc2c2ccccc12	> 100	> 100	> 100	> 100	> 100	> 100	> 100	> 100	> 100	> 100									
CN1C2=Nc3n(c4ccccc4[n+]3C)CN2c2ccccc21	44.1		> 100	33.6			> 100	> 100	> 100	> 100									
C=C1C[C@@H]2O[C@H]3[C@H]4[C@@H](C[C@@H](C)[C@@H](OC(C)=O)[C@H]42)[C@@H](C)CO[C@@]3(C)[C@H](OC(=O)CCCCCCC)CC1=O	36.9		29.5	35.9	24.8	42.9	36.7	31.4	30.7										
Cc1nc2c(=O)n(-c3ccccc3)c(=O)n(-c3ccccc3)c2o1	> 100	> 100	> 100	> 100	> 100	> 100	> 100		> 100	> 100									
CC1(C)OCC(C2OC(C)(C)OC2[C@H]2O[C@@]3(O)[C@H]4[C@H](C=CC[C@@H]42)[C@@H](OCc2ccccc2)[C@H](OCc2ccccc2)[C@H]3OCc2ccccc2)O1 (stereo partly specified)	> 100	> 100	72.3	> 100	> 100	> 100	> 100	> 100	> 100	> 100									
CCOC(=O)/C=C/CCC(C)(C)COC(C)=O	> 10	> 10	> 10	> 10	> 10	> 10	> 10	> 10	> 10	> 10									
CCc1nc2c(c(N(C)C)c1C(=O)OC)CCc1ccccc1-2	> 100	> 100	> 100	48.2	> 100	79	87.8	40.9	68.9	51.4									
NC(=O)c1ccc[n+](C2=C([O-])c3ccccc3C(=O)/C2=N\S(=O)(=O)c2ccccc2)c1	31.3	18.9	27.9	29.6	28.1	28.9	34.5	34	27.7	> 100									
NCCCCNCCCN1CCOC1=O	> 100		> 100	> 100	> 100	> 100	> 100	> 100	> 100	> 100									
Cc1cc(-c2cc(C(C)(C)C)c(O)c(C(C)(C)C)c2)c(C)cc1-c1cc(C(C)(C)C)c(O)c(C(C)(C)C)c1	> 100	> 100	> 100	> 100	> 100	> 100	> 100	> 100	> 100	> 100									
C=CN(C=C)C(=O)Cn1cc(-c2ccccc2)nn1	> 100	> 100		> 100	> 100		> 100	> 100	> 100										
COc1ccc(-c2cc3cc(Cl)cc(Cl)c3oc2=O)cc1OC	> 100	> 100	> 100	> 100		> 100	> 100	> 100	> 100	> 100									
CCOC(=O)[C@@H](Cc1ccc(CCl)cc1)NC(C)=O	67	41.1	36.4	83.5	59	98.5	81.6	> 100	40.2	> 100									
c1cncc(CSc2nc3ccccc3nc2-c2cccs2)c1	> 100	> 100	> 100		> 100	> 100			> 100										
CCOC(=O)c1csc(NC(=O)CCN2CCCC2)n1		> 100	> 100	> 100	> 100	> 100	> 100	> 100	> 100	> 100									
CN(C)CCNCCCNc1c2ccccc2nc2cccc([N+](=O)[O-])c12	0.105	0.0208	0.26	< 0.0268	0.0573	0.102	0.0832	0.0525	0.525	0.26									
O=C1c2cc3c(cc2CC12Cc1ccc4c(c1C2=O)CCC4)CCC3 (stereo unspecified)	> 100	> 100	> 100	> 100	> 100		> 100	> 100	> 100	> 100									
COc1cc2c(c(OC)c1)[C@H](C)N(Cc1ccccc1)C(C)C2 (stereo partly specified)	> 100		> 100	> 100	> 100	84.6	> 100	> 100	> 100	> 100									
COc1ccc(C2c3cc4c(cc3OC(Nc3ccccc3)C2C)OCO4)cc1 (stereo unspecified)	> 100		> 100	> 100	> 100	> 100	> 100	> 100	> 100	> 100									

Structure (SMILES)	TGI (SF-268 CNS) [µM]	TGI (OVCAR-4 ovarian) [µM]	TGI (UO-31 renal) [µM]	TGI (MCF7 breast) [µM]	TGI (SNB-75 CNS) [µM]	TGI (NCI-H226 lung) [µM]	TGI (MDA-MB-231 breast) [µM]	TGI (DU-145 prostate) [µM]	TGI (UACC-257 melanoma) [µM]	TGI (SK-OV-3 ovarian) [µM]	GI50 (SF-268 CNS) [µM]	GI50 (OVCAR-4 ovarian) [µM]	GI50 (UO-31 renal) [µM]	GI50 (SNB-75 CNS) [µM]	GI50 (NCI-H226 lung) [µM]	GI50 (SK-OV-3 ovarian) [µM]	GI50 (MDA-MB-231 breast) [µM]	GI50 (DU-145 prostate) [µM]	GI50 (UACC-257 melanoma) [µM]
CC(C)(C)c1ccnc(N=C2N=C(Nc3cc(C(C)(C)C)ccn3)c3ccccc32)c1	37.9	> 100	65.3		> 100	> 100			76.1	49									
N#C/C(C(=O)NCc1ccccc1)=C(/N)N1CCCC1	> 100	> 100	> 100			> 100	> 100	> 100	> 100	> 100									
CC(C)(C)N=NC(C)(C)N=C=O	> 100	> 100	> 100		> 100	> 100			> 100	> 100									
CCOC(=O)c1c(-c2ccccc2)c(OC)cn1C	> 10	> 10		> 10	> 10	> 10	> 10	> 10	> 10	> 10									
CCCn1cc2c3c(cccc31)C1C=C(C)CN(C)C1C2 (stereo unspecified)	47.2	29.8	38.8	37.8	39.3	40.9			29.6	71.4									
CC(=O)/C(=N\Nc1ccc(Cl)cc1)C(C)=Nc1ccc(C)cc1	> 100	> 100	> 100		> 100	83.7	> 100	> 100	> 100	> 100									
N#Cc1c(-c2ccc([N+](=O)[O-])cc2)c(C#N)c(=O)n(NS(=O)(=O)c2ccccc2)c1O		> 100		> 100		> 100	> 100		> 100	> 100									
COc1ccc(C2C=C(c3ccc(C)cc3)N(c3ccc(OC)cc3[N+](=O)[O-])C3C(=O)OC(=O)C23)c(OC)c1 (stereo unspecified)	> 100	> 100		> 100	75.9	> 100	> 100		> 100	> 100									
O=[N+]([O-])c1ccc(-c2csc(=[N+]3CCCCC3)s2)cc1	> 100	81.4	> 100		> 26.5				31.4	> 100									
CC(=O)Oc1ccn2nc(C)c(Br)c2c1	> 100	> 100		> 100	97.2	> 100	> 100	> 100	99.5										
CN(C)CCCNC(=O)N/N=C/c1ccccc1	> 100		> 100		> 100	> 100			> 100	> 100									
Oc1ccccc1/C=N/N1C(=S)N(C23CC4CC(CC(C4)C2)C3)C(=Nc2ccccc2)C1=Nc1ccccc1	> 100		> 100			> 100	> 100	> 100	> 100	> 100									
Cc1cc(-c2ccccc2)nc2oc(=O)n(C)c12	> 100	> 100	> 100	> 100		> 100	> 100	> 100	> 100	> 100									
COc1ccc([C@]23CCC4(OCC(C)(C)CO4)[C@H]4CON(O[C@H](O[C@@H]5CCCCC5C(C)(C)c5ccccc5)C2)[C@@H]43)cc1OC (stereo partly specified)		> 100	> 100	> 100	> 100	> 100	> 100	> 100	> 100	> 100									
O=C1c2cc3c(cc2-c2c1c1ccc(Cl)cc1c(=O)n2CCCn1ccnc1)OCO3	> 100	> 100	> 100		4.14	> 100	> 100	0.282	> 100	26.6	< 0.01	0.0525	< 0.01	0.0107	0.0186	< 0.01	0.959	< 0.01	0.0584
CCCCNC(=O)Cn1c2ccc(Br)cc2c2nc3ccccc3nc21	> 100		> 100		> 100	> 100	> 100	> 100	> 100										
CSc1ccc(/C=C2\N=C(c3ccccc3)N(c3nc4cc(Cl)c(F)cc4s3)C2=O)cc1	> 100	82.7	> 100	> 100	66.6		> 100	> 100	> 100	> 100									
O=C1Nc2cc(F)ccc2C1=O	> 100	> 100	> 100		> 100	> 100			> 100	> 100									
O=C1CSC(c2c[nH]c3ccccc23)N1c1ccc(Cl)cc1Cl (stereo unspecified)	> 100	> 100	> 100	> 100	> 100		> 100	> 100	> 100	> 100									
CCN(CC)C(=S)N/N=C(/c1ccccc1)c1ccccn1		23.8	9.52	> 54	7.59	7.65		> 65.9	2.56	38.6									
COc1cc(N=Nc2ccc(OC)c(S(=O)(=O)O)c2)c(C)cc1N=Nc1ccc(/C=C/c2ccc(N=[N+]([O-])c3ccc(/C=C/c4ccc(N=Nc5cc(C)c(N=Nc6ccc(OC)c(S(=O)(=O)O)c6)cc5OC)cc4S(=O)(=O)O)c(S(=O)(=O)O)c3)cc2S(=O)(=O)O)c(S(=O)(=O)O)c1	> 100	> 100	> 100	> 100	> 100	> 100			> 100	> 100									
CCOC(=O)c1c(SCc2cc(=O)[nH]c(=O)[nH]2)n(-c2ccccc2)c(=S)n(-c2ccccc2)c1=O	> 100		> 100	> 100	> 100		> 100	> 100	> 100										
CSc1nc(=O)c2nc(-c3cccs3)c(-c3cccs3)nc2n1C	> 100	> 100	> 100	> 100	49.6		> 100	> 100	> 100	> 100									
